Experiments:
[1] = Room temperature storage stability of NAD+ and NMN in blood spotted on filter paper (DBS, LC-MS/MS); format: physicochemical, human; conditions: for Storage stability (mean): vs storage 0 days
Procedure: A filter paper, to which blood derived from a test subject is added (i.e., corresponding to a filter paper in Step 1 of the present invention), was searched for the optimal one for quantifying NAD+ and NMN when the filter paper with added blood derived from the test subject is stored at room temperature for a certain period of time.
A part of the blood spotted-filter paper prepared in Example 2 was sealed in a moisture absorption standard pouch (Moisture absorption-kun (registered trademark)/Maruto Sangyo Co., Ltd.) and then stored at room temperature. After storage at room temperature for 2 days, 1 week (7 days), or 2 weeks (15 days), the blood-spotted areas were cut out and collected in a 2 mL microtube. After performing the same treatment as in Example 2, measurement by LC-MS/MS was performed under the same conditions as in Example 2.

[2] = Chilled storage stability of NAD+ and NMN in blood spotted on filter paper (DBS, LC-MS/MS); format: physicochemical, human; conditions: for Storage stability (mean): vs storage 0 days
Procedure: A filter paper, to which blood derived from a test subject is added (i.e., corresponding to a filter paper in Step 1 of the present invention), was searched for the optimal one for quantifying NAD+ and NMN when the filter paper with added blood derived from the test subject is stored in the refrigerator for a certain period of time.
From 5 subjects (adult men and women) per test, approximately 120 μL of blood (amount of 2 collection containers of the kit) was sampled by self-collection using an Micro Blood Collection Kit (Micro Blood Science Co., Ltd.), and was left to stand on ice until sample processing. The subjects were fasted on the morning of the sampling day, and samplings were performed around 9:00 am. The test was performed four times in total, with a total of 19 people performing evaluations, excluding one person due to insufficient sample blood volume.
The sampled blood was collected into 1.5 mL microtubes for each subject and mixed by gentle pipetting. Four types of filter papers (Whatman FTA DMPK-A Card/GE healthcare, QIAcard FTA DMPK-B Card/QIAGEN, QIAcard FTA DMPK-C Card/QIAGEN, Whatman 903 Protein saver card/Cytiva) were each spotted with 5 μL of blood (dropped/added) at multiple areas, sealed in a moisture absorption standard pouch (Moisture absorption-kun (registered trademark)/Maruto Sangyo Co., Ltd.), and stored in the refrigerator. Next, after chilled storing the blood-spotted filter paper for 2 days, 2 weeks (14 days or 15 days), or 1 month (30 days), the blood-spotted areas were cut out and collected in a 2 mL microtube. After adding 300 μL of a mixed aqueous solution of internal standard substances (NAD+-d4 and NMN-d4/Toronto Research Chemicals, Inc.) thereto and stirring using a vortex mixer, the mixture was mixed with a micromixer (TOMY MICRO TUBE MIXER MT-400, stirring speed 5) for 30 minutes at room temperature. The blood extract solution was dispensed by each 150 μL portion into a microtube, 300 μL of acetonitrile was added thereto, and the mixture was stirred using a vortex mixer, followed by centrifugation (24,250×g, 10 minutes, 4° C.). After centrifugation, 40 μL of the supernatant was dispensed into a vial and measured by LC-MS/MS.
In contrast, as a sample for initial values, 5 μL of blood was collected into a 2 mL microtube (no spotted filter paper), and 300 μL of a mixed aqueous solution of internal standard substances (NAD-d4 and NMN-d4/Toronto Research Chemicals, Inc.) was added thereto and stirred using a vortex mixer, and then the mixture was mixed using a micromixer (TOMY MICRO TUBE MIXER MT-400, stirring speed 5) for 30 minutes at room temperature. The blood extract solution was dispensed by each 150 μL portion into a microtube, 300 μL of acetonitrile was added thereto, and the mixture was stirred using a vortex mixer, followed by centrifugation (24,250×g, 10 minutes, 4° C.). After centrifugation, 40 μL of the supernatant was dispensed into a vial and measured by LC-MS/MS.

[3] = human blood on 903 card, room temperature storage for 2 days
[4] = human blood on DMPK-A card, room temperature storage for 2 weeks
[5] = human blood on DMPK-A card, room temperature storage for 2 days
[6] = human blood on DMPK-B card, room temperature storage for 1 week
[7] = human blood on DMPK-B card, room temperature storage for 2 weeks
[8] = human blood on DMPK-B card, room temperature storage for 2 days
[9] = human blood on 903 card, chilled storage for 2 weeks
[10] = human blood on 903 card, chilled storage for 2 days
[11] = human blood on DMPK-A card, chilled storage for 1 month
[12] = human blood on DMPK-A card, chilled storage for 2 weeks
[13] = human blood on DMPK-A card, chilled storage for 2 days
[14] = human blood on DMPK-B card, chilled storage for 1 month
[15] = human blood on DMPK-B card, chilled storage for 2 weeks
[16] = human blood on DMPK-B card, chilled storage for 2 days
[17] = human blood on DMPK-C card, chilled storage for 2 weeks
[18] = human blood on DMPK-C card, chilled storage for 2 days

NC(=O)c1ccc[n+]([C@@H]2O[C@H](COP(=O)([O-])O)[C@@H](O)[C@H]2O)c1 [NMN, nicotinamide mononucleotide]
Storage stability, Evaluation [1, 3]: Good (Good (≥70%)) | Storage stability (mean) [1, 3]: 79.8% | Storage stability, Evaluation [1, 4]: Excellent: (Excellent (≥85%)) | Storage stability (mean) [1, 4]: 124.2% | Storage stability, Evaluation [1, 5]: Excellent: (Excellent (≥85%)) | Storage stability (mean) [1, 5]: 122.7% | Storage stability, Evaluation [1, 6]: Average: (Average (≥50%)) | Storage stability (mean) [1, 6]: 69.1% | Storage stability, Evaluation [1, 7]: Average: (Average (≥50%)) | Storage stability (mean) [1, 7]: 66.6% | Storage stability, Evaluation [1, 8]: Excellent: (Excellent (≥85%)) | Storage stability (mean) [1, 8]: 96.5% | Storage stability (mean) ([2]; human blood on 903 card, chilled storage for 1 month): 56.3% | Storage stability, Evaluation [2, 9]: Average: (Average (≥50%)) | Storage stability (mean) [2, 9]: 64.5% | Storage stability, Evaluation [2, 10]: Average: (Average (≥50%)) | Storage stability (mean) [2, 10]: 60.1% | Storage stability, Evaluation [2, 11]: Excellent: (Excellent (≥85%)) | Storage stability (mean) [2, 11]: 99.9% | Storage stability, Evaluation [2, 12]: Good: (Good (≥70%)) | Storage stability (mean) [2, 12]: 80.6% | Storage stability, Evaluation [2, 13]: Good: (Good (≥70%)) | Storage stability (mean) [2, 13]: 73.1% | Storage stability, Evaluation [2, 14]: Good: (Good (≥70%)) | Storage stability (mean) [2, 14]: 78.6% | Storage stability, Evaluation [2, 15]: Excellent: (Excellent (≥85%)) | Storage stability (mean) [2, 15]: 93.6% | Storage stability, Evaluation [2, 16]: Excellent: (Excellent (≥85%)) | Storage stability (mean) [2, 16]: 95.4% | Storage stability, Evaluation [2, 17]: Average: (Average (≥50%)) | Storage stability (mean) [2, 17]: 52.9% | Storage stability, Evaluation [2, 18]: Average: (Average (≥50%)) | Storage stability (mean) [2, 18]: 68.4%

— US20250085283A1, “METHOD FOR QUANTIFYING NICOTINAMIDE ADENINE DINUCLEOTIDE (NAD+) OR NICOTINAMIDE MONONUCLEOTIDE (NMN), AND KIT AND FILTER PAPER FOR PERFORMING THE METHOD” (Teijin Limited, priority 2022, published 2025)
